Measurements reported in patent US20240368150A1 (Hoffmann-La Roche Inc., priority 2021, published 2024).
Like-named read-outs stand apart in the source and are kept apart here.

Legend:
primary human T-cells [1] = system: primary human T-cells
primary human T-cells [2] = assay: Proliferation assay after 5 days (CellTiter-Glo, CD3 stimulation; PBS counter screen); assay type: cell-based; conditions: Homo sapiens, T-cell, 120 h, CD3 stimulation; for Emax: 5 days, normalized to reference compound A1 as stimulator control = 100%, DMSO neutral control, read-out: Emax proliferation (% activation); for EC50: primary human T-cells, CellTiter-Glo after 5 days, EC50 of fitted sigmoidal curve, read-out: Tcell Proliferation CD3 EC50
Outline: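 Read-out: CellTiter-Glo 2.0 luminescence (ATP ∝ cell number) at day 5 after compound addition. Compounds activating unstimulated cells or reducing viability flagged.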

MV-3 cells = assay: T-cell - TCB - MV3 killing assay (MCSP-TCB, RFP object count by Incucyte); assay type: cell-based, human; conditions: 5 d; for Emax: normalized: MCSP-TCB only = neutral control, 20 μM reference compound A1 = 100%, read-out: MSCP TCB killing MV-3 cells 5 d Emax; for EC50: primary human T-cells + MCSP-TCB, MV-3 RFP cells, read-out: MSCP TCB killing MV-3 cells 5 d EC50

SMILES | EC50 (primary human T-cells [1]) | Emax (primary human T-cells [2]) | EC50 (primary human T-cells [2]) | Emax (MV-3 cells; Homo sapiens, MV-3, 120 h) | EC50 (MV-3 cells) | EC50 (MV-3 cells; Homo sapiens, MV-3, 120 h)
CCc1cn(-c2cc3c(cc2F)S(=O)(=O)C[C@H](N)C(=O)N3Cc2ccc(Cl)cc2)nn1 [Example 3, (3R)-3-amino-5-[(4-chlorophenyl)methyl]-7-(4-ethyltriazol-1-yl)-8-fluoro-1,1-dioxo-2,3-dihydro-1λ^6,5-benzothiazepin-4-one] | 12 µM | 68% | 4.3 µM | 100% | 1.55 µM | 
CC(C)(C)c1noc(-c2cc3c(cc2F)S(=O)(=O)C[C@H](N)C(=O)N3Cc2ccc(Cl)cc2)n1 [Example 43, (3R)-3-Amino-7-(3-tert-butyl-1,2,4-oxadiazol-5-yl)-5-[(4-chlorophenyl)methyl]-8-fluoro-1,1-dioxo-2,3-dihydro-1λ^6,5-benzothiazepin-4-one] | 2.32 µM | 143% | 0.265 µM | 102% |  | 0.04 µM
N[C@H]1CS(=O)(=O)c2cc(F)c(-c3nc(CC(F)(F)F)no3)cc2N(Cc2ccc(Cl)cc2)C1=O [Example 49, (3R)-3-amino-5-[(4-chlorophenyl)methyl]-8-fluoro-1,1-dioxo-7-[3-(2,2,2-trifluoroethyl)-1,2,4-oxadiazol-5-yl]-2,3-dihydro-1λ^6,5-benzothiazepin-4-one] | 2.18 µM | 112% | 0.585 µM | 100% | 0.17 µM | 
CCc1nnc(-c2cc3c(cc2F)S(=O)(=O)C[C@H](N)C(=O)N3Cc2ccc(Cl)cc2)o1 [Example 72, (3R)-3-Amino-5-[(4-chlorophenyl)methyl]-7-(5-ethyl-1,3,4-oxadiazol-2-yl)-8-fluoro-1,1-dioxo-2,3-dihydro-1λ^6,5-benzothiazepin-4-one] | 3.24 µM | 124% | 1.14 µM | 115% | 0.31 µM | 

These reach a lower EC50 (primary human T-cells [1]). Values come first.

EC50 (primary human T-cells [1]) | SMILES | Emax (primary human T-cells [2]) | EC50 (primary human T-cells [2]) | Emax (MV-3 cells; Homo sapiens, MV-3, 120 h) | EC50 (MV-3 cells) | EC50 (MV-3 cells; Homo sapiens, MV-3, 120 h)
0.0938 µM | CC(C)(C)n1nnc(-c2cc3c(cc2F)S(=O)(=O)C[C@H](N)C(=O)N3Cc2ccc(Cl)cc2)n1 [Example 8, (3R)-3-amino-7-(2-tert-butyltetrazol-5-yl)-5-[(4-chlorophenyl)methyl]-8-fluoro-1,1-dioxo-2,3-dihydro-1λ^6,5-benzothiazepin-4-one] | 130% | 0.0845 µM | 96% |  | 0.07 µM
0.967 µM | CN1CCC(n2nnc(-c3cc4c(cc3F)S(=O)(=O)C[C@H](N)C(=O)N4Cc3ccc(Cl)cc3)n2)C1 (stereo partly drawn) [Example 12, (3R)-3-amino-5-[(4-chlorophenyl)methyl]-8-fluoro-7-[2-(1-methylpyrrolidin-3-yl)tetrazol-5-yl]-1,1-dioxo-2,3-dihydro-1λ^6,5-benzothiazepin-4-one] | 84% | 1.02 µM | 96% | 0.91 µM | 
0.473 µM | CC(C)(C)n1nnc(-c2ccc3c(c2)N(Cc2ccc(Cl)cc2)C(=O)[C@@H](N)CS3(=O)=O)n1 [Example 36] | 86% | 0.404 µM | 81% | 0.39 µM | 
0.0671 µM | CC(C)(C)c1nnc(-c2cc3c(cc2F)S(=O)(=O)C[C@H](N)C(=O)N3Cc2ccc(Cl)cc2)o1 [Example 63, (3R)-3-amino-7-(5-tert-butyl-1,3,4-oxadiazol-2-yl)-5-[(4-chlorophenyl)methyl]-8-fluoro-1,1-dioxo-2,3-dihydro-1λ^6,5-benzothiazepin-4-one] | 141% | 0.0488 µM | 93% |  | 0.02 µM
0.0552 µM | N[C@H]1CS(=O)(=O)c2cc(F)c(-c3nnc(C4CCCCC4(F)F)o3)cc2N(Cc2ccc(Cl)cc2)C1=O (stereo partly drawn) [Example 74, (3R)-3-Amino-5-[(4-chlorophenyl)methyl]-7-[5-(2,2-difluorocyclohexyl)-1,3,4-oxadiazol-2-yl]-8-fluoro-1,1-dioxo-2,3-dihydro-1λ^6,5-benzothiazepin-4-one] | 180% | 0.0487 µM | 97% | 0.02 µM | 
